Patent publication US8410106B2, “Hydrazine-substituted anthranilic acid derivatives” (Bayer Cropscience AG, priority 2010, dated 2013)
Read-outs that look alike come from different tables or passages of the source.

Legend:
[1] = tested on: caterpillars of the army worm (Spodoptera frugiperda); test: Spodoptera frugiperda test (SPODFR spray treatment); type: in vivo; conditions: foliar, 168 h, read-out: activity (caterpillars killed)
[2] = tested on: green peach aphid (Myzus persicae); test: Myzus test (MYZUPE spray treatment); type: in vivo; conditions: foliar, 144 h, read-out: activity (aphids killed)
Procedure: After 6 days the activity is determined, in %.

[3] = logP determination by HPLC on reversed-phase columns (C 18), EEC Directive 79/831 Annex V.A8; type: physicochemical
[4] = tested on: larvae of the mustard beetle (Phaedon cochleariae); test: Phaedon test (PHAECO spray treatment); conditions: in Brassica rapa, foliar, 168 h, read-out: activity (beetle larvae killed)
[5] = application rate 100 g/ha, after 7 days, maize leaf discs, spray
[6] = application rate 100 g/ha, after 6 days, Chinese cabbage leaf discs, spray
[7] = HPLC, reversed-phase C 18, table value without method mark, read-out: logP

COC(=O)N(C)NC(=O)c1cc(Cl)cc(Cl)c1NC(=O)c1cc(Cn2nnc(C(F)(F)C(F)(F)F)n2)nn1-c1ncccc1Cl [Example 25]
pest or weed control at 100 g/ha ([1]; in Zea mays): 100% | pest or weed control at 100 g/ha ([2]; in Brassica rapa): 100% | chromatographic logP [3]: 3.32 | pest or weed control at 100 g/ha [4]: 100%

COC(=O)N(C)NC(=O)c1cc(Cl)cc(C)c1NC(=O)c1cc(Cn2nnc(C(F)F)n2)nn1-c1ncccc1Cl [Example 26]
pest or weed control at 100 g/ha ([1]; in Zea mays): 100% | pest or weed control at 100 g/ha ([2]; in Brassica rapa): 100% | chromatographic logP [3]: 2.49 | pest or weed control at 100 g/ha [4]: 100%

COC(=O)N(C)NC(=O)c1cc(Br)cc(C)c1NC(=O)c1cc(Cn2nnc(C(F)F)n2)nn1-c1ncccc1Cl [Example 27]
pest or weed control at 100 g/ha ([1]; in Zea mays): 100% | pest or weed control at 100 g/ha ([2]; in Brassica rapa): 100% | chromatographic logP [3]: 2.58 | pest or weed control at 100 g/ha [4]: 100%

COC(=O)N(C)NC(=O)c1cc(Cl)cc(Cl)c1NC(=O)c1cc(Cn2nnnc2C(F)F)nn1-c1ncccc1Cl [Example 28]
pest or weed control at 100 g/ha ([1]; in Zea mays): 100% | pest or weed control at 100 g/ha ([2]; in Brassica rapa): 100% | chromatographic logP [3]: 2.27 | pest or weed control at 100 g/ha [4]: 100%

COC(=O)N(C)NC(=O)c1cc(C#N)cc(C)c1NC(=O)c1cc(Cn2ncc(C(F)(F)F)n2)nn1-c1ncccc1Cl [Example 29]
pest or weed control at 100 g/ha ([1]; in Zea mays): 100% | pest or weed control at 100 g/ha ([2]; in Brassica rapa): 100% | chromatographic logP [3]: 2.62 | pest or weed control at 100 g/ha [4]: 100%

COC(=O)N(C)NC(=O)c1cc(Cl)cc(C)c1NC(=O)c1cc(Cn2ncc(C(F)(F)F)n2)nn1-c1ncccc1Cl [Example 30]
pest or weed control at 100 g/ha ([1]; in Zea mays): 100% | pest or weed control at 100 g/ha ([2]; in Brassica rapa): 100% | chromatographic logP [3]: 2.94 | pest or weed control at 100 g/ha [4]: 100%

COC(=O)N(C)NC(=O)c1cc(Cl)cc(Cl)c1NC(=O)c1cc(Cn2ncc(C(F)(F)F)n2)nn1-c1ncccc1Cl [Example 31]
pest or weed control at 100 g/ha ([1]; in Zea mays): 100% | pest or weed control at 100 g/ha ([2]; in Brassica rapa): 100% | chromatographic logP [3]: 2.94 | pest or weed control at 100 g/ha [4]: 100%

COC(=O)N(C)NC(=O)c1cc(I)cc(C)c1NC(=O)c1cc(Cn2ncc(C(F)(F)F)n2)nn1-c1ncccc1Cl [Example 32]
pest or weed control at 100 g/ha ([1]; in Zea mays): 100% | pest or weed control at 100 g/ha ([2]; in Brassica rapa): 90% | chromatographic logP [3]: 2.81 | pest or weed control at 100 g/ha [4]: 100%

COC(=O)N(C)NC(=O)c1cc(Cl)cc(C)c1NC(=O)c1cc(Cn2cc(C(F)(F)F)nn2)nn1-c1ncccc1Cl [Example 33]
pest or weed control at 100 g/ha ([1]; in Zea mays): 100% | pest or weed control at 100 g/ha ([2]; in Brassica rapa): 100% | chromatographic logP [3]: 2.61 | pest or weed control at 100 g/ha [4]: 100%

COC(=O)N(C)NC(=O)c1cc(Cl)cc(Cl)c1NC(=O)c1cc(Cn2cc(C(F)(F)F)nn2)nn1-c1ncccc1Cl [Example 34]
pest or weed control at 100 g/ha ([1]; in Zea mays): 100% | pest or weed control at 100 g/ha ([2]; in Brassica rapa): 100% | chromatographic logP [3]: 2.61 | pest or weed control at 100 g/ha [4]: 100%

COC(=O)N(C)NC(=O)c1cc(I)cc(C)c1NC(=O)c1cc(Cn2cc(C(F)(F)F)nn2)nn1-c1ncccc1Cl [Example 35]
pest or weed control at 100 g/ha ([1]; in Zea mays): 100% | pest or weed control at 100 g/ha ([2]; in Brassica rapa): 100% | chromatographic logP [3]: 3.14 | pest or weed control at 100 g/ha [4]: 100%

COC(=O)N(C)NC(=O)c1cc(Cl)cc(Cl)c1NC(=O)c1cc(Cn2cnc(C(F)(F)F)c2C(F)(F)F)nn1-c1ncccc1Cl [Example 36]
pest or weed control at 100 g/ha [1, 5]: 100% | pest or weed control at 100 g/ha [2, 6]: 100% | chromatographic logP [3, 7]: 3.1 | pest or weed control at 100 g/ha [4]: 100%

COC(=O)N(C)NC(=O)c1cc(Cl)cc(C)c1NC(=O)c1cc(Cn2cc(C3CC3)nn2)nn1-c1ncccc1Cl [Example 37]
pest or weed control at 100 g/ha ([1]; in Zea mays): 100% | pest or weed control at 100 g/ha ([2]; in Brassica rapa): 100% | chromatographic logP [3]: 2.18 | pest or weed control at 100 g/ha [4]: 100%

COC(=O)NNC(=O)c1cc(Cl)cc(C)c1NC(=O)c1cc(Cn2cc(C3CC3)nn2)nn1-c1ncccc1Cl [Example 38]
pest or weed control at 100 g/ha ([1]; in Zea mays): 100% | pest or weed control at 100 g/ha ([2]; in Brassica rapa): 100% | chromatographic logP [3]: 2.02 | pest or weed control at 100 g/ha [4]: 100%

COC(=O)N(C)N(C)C(=O)c1cc(Cl)cc(C)c1NC(=O)c1cc(Cn2cc(-c3ccc(Cl)cc3)nn2)nn1-c1ncccc1Cl [Example 41]
pest or weed control at 100 g/ha [1, 5]: 100% | pest or weed control at 100 g/ha [2, 6]: 100% | chromatographic logP [3, 7]: 3.49 | pest or weed control at 100 g/ha [4]: 100%
